According to patent publication US6358885B1, “Substituted phenylheterocyclic herbicides” (Mississippi State University, priority 1992, dated 2002):

How the values were obtained:
sorghum [1] = test: Test C preemergence/postemergence greenhouse plant response rating 0 to 100; assay type: in vivo, Sorghum bicolor; conditions: POSTEMERGENCE; for Plant response rating, Sorghum: 0 to 100 scale
Outline: (§1)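 Compounds in non-phytotoxic solvent went onto sandy loam before emergence (seeded one day earlier) or onto plants at the one-to-four leaf stage. Duck salad was treated via flood water (~2.5 cm, maintained) over silt loam.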

barley [2] = test: as above; assay type: in vivo, Hordeum vulgare; conditions: POSTEMERGENCE; for Plant response rating Barley Igri: 0 to 100 scale
Outline: as §1

blackgrass [3] = test: Test B preemergence/postemergence greenhouse plant response rating 0 to 10; assay type: in vivo, Alopecurus myosuroides; conditions: 0 to 10 scale
Outline: (§2)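 Planted seeds are treated preemergence with compound dissolved in a non-phytotoxic solvent, while postemergence applications go onto plants of two to eighteen cm. Plants stay in the greenhouse twelve to sixteen days and are then rated visually relative to controls.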

barley [4] = test: as above; assay type: in vivo, Hordeum vulgare; conditions: 0 to 10 scale
Outline: as §2

rape = test: as above; assay type: in vivo, Brassica napus; conditions: 0 to 10 scale
Outline: as §2

cotton = test: as above; assay type: in vivo, Gossypium hirsutum; conditions: 0 to 10 scale
Outline: as §2

sorghum [5] = test: as above; assay type: in vivo, Sorghum bicolor; conditions: 0 to 10 scale
Outline: as §2

wild buckwheat = test: Test C preemergence/postemergence greenhouse plant response rating 0 to 100; assay type: in vivo, Polygonum convolvulus; conditions: POSTEMERGENCE; for Plant response rating, Wild buckwheat: 0 to 100 scale
Outline: as §1

bedstraw [6] = test: Test B preemergence/postemergence greenhouse plant response rating 0 to 10; assay type: in vivo, Galium aparine; conditions: 0 to 10 scale
Outline: as §2

blackgrass [7] = test: Test C preemergence/postemergence greenhouse plant response rating 0 to 100; assay type: in vivo, Alopecurus myosuroides; conditions: POSTEMERGENCE; for Plant response rating, Blackgrass: 0 to 100 scale
Outline: as §1

bedstraw [8] = test: as above; assay type: in vivo, Galium aparine; conditions: POSTEMERGENCE
Outline: as §1

ryegrass = test: as above; assay type: in vivo, Lolium multiflorum; conditions: POSTEMERGENCE; for Plant response rating Ryegrass: 0 to 100 scale
Outline: as §1

cheatgrass = test: Test B preemergence/postemergence greenhouse plant response rating 0 to 10; assay type: in vivo, Bromus secalinus; conditions: 0 to 10 scale
Outline: as §2

pigweed = test: Test C preemergence/postemergence greenhouse plant response rating 0 to 100; assay type: in vivo, Amaranthusretroflexus; conditions: POSTEMERGENCE; for Plant response rating Pigweed: 0 to 100 scale
Outline: as §1

wheat = test: Test B preemergence/postemergence greenhouse plant response rating 0 to 10; assay type: in vivo, Triticum aestivum; conditions: 0 to 10 scale
Outline: as §2

sugar beet = test: Test C preemergence/postemergence greenhouse plant response rating 0 to 100; assay type: in vivo, Beta vulgaris; conditions: POSTEMERGENCE; for Plant response rating, Sugar beet: 0 to 100 scale
Outline: as §1

duck salad = test: Test C flood test plant response rating 0 to 100; assay type: in vivo, Heteranthera limosa; conditions: for Plant response rating (0 to 100), Duck salad: under POSTEMERGENCE head (flood test species); for Plant response rating Duck salad: flood test species listed under POSTEMERGENCE, 0 to 100 scale
Outline: as §1

rice = test: Test B preemergence/postemergence greenhouse plant response rating 0 to 10; assay type: in vivo, Oryza sativa; conditions: 0 to 10 scale
Outline: as §2

C=C(Cl)COc1cc(-c2nn3c(c2Cl)CCCC3)c(F)cc1Cl [Compound 40]
Plant response rating, Sorghum (sorghum [1]; 62 g/ha): 30
Plant response rating, Sorghum (sorghum [1]; 125 g/ha): 50
Plant response rating (0 to 100), Sorghum (sorghum [1]; Rate 16 g/ha): 20
Plant response rating (0 to 100), Sorghum (sorghum [1]; Rate 31 g/ha): 20
Plant response rating Barley Igri (barley [2]; 62 g/ha): 30
Plant response rating Barley Igri (barley [2]; 125 g/ha): 40
Plant response rating (0 to 100), Barley Igri (barley [2]; Rate 16 g/ha): 20
Plant response rating (0 to 100), Barley Igri (barley [2]; Rate 31 g/ha): 30
Plant response rating, Blackgrass (blackgrass [3]; POSTEMERGENCE, Rate 50 g/ha): 2
Plant response rating, Blackgrass (blackgrass [3]; POSTEMERGENCE, Rate 200 g/ha): 3
Plant response rating, Blackgrass (blackgrass [3]; Rate 200 g/ha, PREEMERGENCE): 2
Plant response rating, Barley (barley [4]; POSTEMERGENCE, Rate 50 g/ha): 4
Plant response rating, Barley (barley [4]; POSTEMERGENCE, Rate 200 g/ha): 5
Plant response rating, Barley (barley [4]; PREEMERGENCE, Rate 50 g/ha): 0
Plant response rating, Barley (barley [4]; Rate 200 g/ha, PREEMERGENCE): 1
Plant response rating, Rape (rape; POSTEMERGENCE, Rate 50 g/ha): 4
Plant response rating, Rape (rape; PREEMERGENCE, Rate 50 g/ha): 8
Plant response rating, Rape (rape; Rate 200 g/ha, POSTEMERGENCE): 8
Plant response rating, Rape (rape; Rate 200 g/ha, PREEMERGENCE): 6
Plant response rating, Cotton (cotton; POSTEMERGENCE, Rate 50 g/ha): 10
Plant response rating, Cotton (cotton; POSTEMERGENCE, Rate 200 g/ha): 10
Plant response rating, Cotton (cotton; PREEMERGENCE, Rate 50 g/ha): 1
Plant response rating, Cotton (cotton; Rate 200 g/ha, PREEMERGENCE): 7
Plant response rating, Sorghum (sorghum [5]; POSTEMERGENCE, Rate 50 g/ha): 4
Plant response rating, Sorghum (sorghum [5]; PREEMERGENCE, Rate 50 g/ha): 0
Plant response rating, Sorghum (sorghum [5]; Rate 200 g/ha, POSTEMERGENCE): 5
Plant response rating, Sorghum (sorghum [5]; Rate 200 g/ha, PREEMERGENCE): 1
Plant response rating, Wild buckwheat (wild buckwheat; 62 g/ha): 100
Plant response rating, Wild buckwheat (wild buckwheat; 125 g/ha): 100
Plant response rating (0 to 100), Wild buckwheat (wild buckwheat; Rate 16 g/ha): 50
Plant response rating (0 to 100), Wild buckwheat (wild buckwheat; Rate 31 g/ha): 50
Plant response rating, Bedstraw (bedstraw [6]; POSTEMERGENCE, Rate 50 g/ha): 10
Plant response rating, Bedstraw (bedstraw [6]; PREEMERGENCE, Rate 50 g/ha): 9
Plant response rating, Bedstraw (bedstraw [6]; Rate 200 g/ha, PREEMERGENCE): 9
Plant response rating, Blackgrass (blackgrass [7]; 62 g/ha): 50
Plant response rating, Blackgrass (blackgrass [7]; 125 g/ha): 70
Plant response rating (0 to 100), Blackgrass (blackgrass [7]; Rate 16 g/ha): 20
Plant response rating (0 to 100), Blackgrass (blackgrass [7]; Rate 31 g/ha): 30
Plant response rating, Bedstraw (bedstraw [8]; 125 g/ha, 0 to 100 scale): 60
Plant response rating (0 to 100), Bedstraw (bedstraw [8]; Rate 16 g/ha): 30
Plant response rating (0 to 100), Bedstraw (bedstraw [8]; Rate 31 g/ha): 30
Plant response rating Ryegrass (ryegrass; 62 g/ha): 30
Plant response rating Ryegrass (ryegrass; 125 g/ha): 40
Plant response rating (0 to 100), Ryegrass (ryegrass; Rate 16 g/ha): 10
Plant response rating (0 to 100), Ryegrass (ryegrass; Rate 31 g/ha): 20
Plant response rating, Cheatgrass (cheatgrass; POSTEMERGENCE, Rate 50 g/ha): 4
Plant response rating, Cheatgrass (cheatgrass; POSTEMERGENCE, Rate 200 g/ha): 4
Plant response rating, Cheatgrass (cheatgrass; PREEMERGENCE, Rate 50 g/ha): 0
Plant response rating, Cheatgrass (cheatgrass; Rate 200 g/ha, PREEMERGENCE): 4
Plant response rating Pigweed (pigweed; 62 g/ha): 100
Plant response rating Pigweed (pigweed; 125 g/ha): 100
Plant response rating (0 to 100), Pigweed (pigweed; Rate 16 g/ha): 90
Plant response rating (0 to 100), Pigweed (pigweed; Rate 31 g/ha): 95
Plant response rating, Wheat (wheat; POSTEMERGENCE, Rate 50 g/ha): 4
Plant response rating, Wheat (wheat; PREEMERGENCE, Rate 50 g/ha): 0
Plant response rating, Wheat (wheat; Rate 200 g/ha, POSTEMERGENCE): 6
Plant response rating, Wheat (wheat; Rate 200 g/ha, PREEMERGENCE): 2
Plant response rating, Sugar beet (sugar beet; 62 g/ha): 100
Plant response rating, Sugar beet (sugar beet; 125 g/ha): 100
Plant response rating (0 to 100), Sugar beet (sugar beet; Rate 16 g/ha): 100
Plant response rating (0 to 100), Sugar beet (sugar beet; Rate 31 g/ha): 100
Plant response rating (0 to 100), Duck salad (duck salad; Rate 16 g/ha): 0
Plant response rating (0 to 100), Duck salad (duck salad; Rate 31 g/ha): 65
Plant response rating Duck salad (duck salad; 62 g/ha): 80
Plant response rating Duck salad (duck salad; 125 g/ha): 85
Plant response rating, Rice (rice; POSTEMERGENCE, Rate 50 g/ha): 5
Plant response rating, Rice (rice; PREEMERGENCE, Rate 50 g/ha): 0
Plant response rating, Rice (rice; Rate 200 g/ha, POSTEMERGENCE): 5
Plant response rating, Rice (rice; Rate 200 g/ha, PREEMERGENCE): 0
